For eleven molecules, IC50, Kd and Ki results are on record in ChEMBL document CHEMBL6096693, “Fragment-to-Lead Medicinal Chemistry Publications in 2023” (J Med Chem, 2025).

Test [1] deals with Bromodomain-containing protein 4 (Homo sapiens, UniProt O60885). Put plainly: Inhibition of BRD4 BD1 (unknown origin) using biotinylated tetra-acetylated H4 peptide SGRG-K(Ac)-GG-K(Ac)-GLG-K(Ac)-GGA-K(Ac)-RHRK-Biotin as substrate incubated for 60 mins by TR-FRET analysis. In general terms: In TR-FRET formats the signal depends on donor and acceptor labels being close together.

Test [2] can be described thus: Binding affinity to Interleukin-1beta (unknown origin) assessed as dissociation constant by SPR analysis. Also on record: species or system Homo sapiens. In general terms: In SPR one partner is held on a chip, and binding of the other changes the refractive index at the surface.
Test [3] has as its target T1, Coagulation factor XII (Homo sapiens, UniProt P00748).
T1 sequence (P00748 whole entry): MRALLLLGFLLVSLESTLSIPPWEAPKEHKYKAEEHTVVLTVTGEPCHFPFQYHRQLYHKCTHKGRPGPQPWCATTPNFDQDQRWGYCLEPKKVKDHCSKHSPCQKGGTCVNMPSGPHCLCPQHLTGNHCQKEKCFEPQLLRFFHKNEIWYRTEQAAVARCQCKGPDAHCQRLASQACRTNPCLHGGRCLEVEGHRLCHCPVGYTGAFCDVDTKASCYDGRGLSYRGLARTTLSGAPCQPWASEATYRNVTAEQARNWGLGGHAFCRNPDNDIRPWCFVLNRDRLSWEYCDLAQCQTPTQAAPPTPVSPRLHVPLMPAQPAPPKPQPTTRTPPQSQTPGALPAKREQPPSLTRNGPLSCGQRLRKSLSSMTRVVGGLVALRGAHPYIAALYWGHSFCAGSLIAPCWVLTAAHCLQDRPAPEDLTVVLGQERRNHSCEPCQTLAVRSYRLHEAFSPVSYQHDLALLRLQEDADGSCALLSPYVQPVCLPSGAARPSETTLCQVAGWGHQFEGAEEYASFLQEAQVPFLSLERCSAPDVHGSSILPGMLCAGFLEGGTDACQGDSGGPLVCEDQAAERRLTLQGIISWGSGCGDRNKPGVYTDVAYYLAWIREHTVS
Put plainly: Inhibition of human FXIIa (unknown origin).

Test [4] is described as follows: Inhibition of SARS-CoV2 Mac1 extracted from Escherichia coli Rosetta2 (DE3). More on the design: species or system Severe acute respiratory syndrome coronavirus 2.
Test [5] has as its target Epidermal growth factor receptor (Homo sapiens, UniProt P00533). Put plainly: Inhibition of EGFR (unknown origin).
Test [6] addresses T2, ATPase family AAA domain-containing protein 2 (Homo sapiens, UniProt Q6PL18).
T2 sequence (Q6PL18 whole entry): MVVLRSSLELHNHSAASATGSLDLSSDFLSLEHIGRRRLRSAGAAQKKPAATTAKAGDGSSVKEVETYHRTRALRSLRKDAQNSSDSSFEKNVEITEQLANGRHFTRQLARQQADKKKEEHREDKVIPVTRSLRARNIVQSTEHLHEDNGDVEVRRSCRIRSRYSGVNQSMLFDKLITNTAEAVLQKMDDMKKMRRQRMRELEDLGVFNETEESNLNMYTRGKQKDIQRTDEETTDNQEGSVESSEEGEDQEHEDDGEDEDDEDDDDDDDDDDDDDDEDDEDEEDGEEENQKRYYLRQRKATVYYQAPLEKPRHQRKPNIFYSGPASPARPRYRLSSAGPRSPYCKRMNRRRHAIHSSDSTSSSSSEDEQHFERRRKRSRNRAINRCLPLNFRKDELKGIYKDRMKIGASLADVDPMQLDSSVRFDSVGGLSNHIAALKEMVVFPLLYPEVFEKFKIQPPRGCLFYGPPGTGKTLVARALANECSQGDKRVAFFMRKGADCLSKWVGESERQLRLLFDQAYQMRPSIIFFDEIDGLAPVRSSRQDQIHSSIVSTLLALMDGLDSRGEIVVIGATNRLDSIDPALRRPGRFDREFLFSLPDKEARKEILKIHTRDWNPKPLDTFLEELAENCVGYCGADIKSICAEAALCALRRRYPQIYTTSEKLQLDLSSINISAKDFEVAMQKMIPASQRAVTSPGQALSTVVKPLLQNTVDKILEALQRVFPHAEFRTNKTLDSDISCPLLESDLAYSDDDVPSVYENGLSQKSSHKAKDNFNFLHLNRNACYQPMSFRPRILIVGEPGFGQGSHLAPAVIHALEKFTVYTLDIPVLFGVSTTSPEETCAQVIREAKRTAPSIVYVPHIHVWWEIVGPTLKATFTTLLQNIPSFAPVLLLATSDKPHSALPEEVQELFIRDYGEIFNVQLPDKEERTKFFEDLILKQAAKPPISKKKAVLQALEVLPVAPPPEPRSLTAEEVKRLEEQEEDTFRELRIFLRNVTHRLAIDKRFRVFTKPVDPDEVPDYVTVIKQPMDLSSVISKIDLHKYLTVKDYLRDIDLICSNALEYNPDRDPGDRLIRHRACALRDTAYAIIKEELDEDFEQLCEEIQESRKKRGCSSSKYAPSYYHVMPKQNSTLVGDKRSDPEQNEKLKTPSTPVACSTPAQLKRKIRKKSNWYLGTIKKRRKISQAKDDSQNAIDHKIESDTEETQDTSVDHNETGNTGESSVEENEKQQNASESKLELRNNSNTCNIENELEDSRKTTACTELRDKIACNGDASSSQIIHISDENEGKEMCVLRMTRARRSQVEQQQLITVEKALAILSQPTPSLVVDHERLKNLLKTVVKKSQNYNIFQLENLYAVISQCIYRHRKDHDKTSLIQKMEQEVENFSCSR
Put plainly: Inhibition of recombinant ATAD2 bromodomain (unknown origin) by TR-FRET assay.

The target of test [7] is Bifunctional dihydrofolate reductase-thymidylate synthase (Plasmodium falciparum K1, UniProt P13922). As to the kind of experiment: Binding affinity to Plasmodium falciparum DHFR assessed as inhibition constant.
Sequence of Bifunctional dihydrofolate reductase-thymidylate synthase (P13922 whole entry): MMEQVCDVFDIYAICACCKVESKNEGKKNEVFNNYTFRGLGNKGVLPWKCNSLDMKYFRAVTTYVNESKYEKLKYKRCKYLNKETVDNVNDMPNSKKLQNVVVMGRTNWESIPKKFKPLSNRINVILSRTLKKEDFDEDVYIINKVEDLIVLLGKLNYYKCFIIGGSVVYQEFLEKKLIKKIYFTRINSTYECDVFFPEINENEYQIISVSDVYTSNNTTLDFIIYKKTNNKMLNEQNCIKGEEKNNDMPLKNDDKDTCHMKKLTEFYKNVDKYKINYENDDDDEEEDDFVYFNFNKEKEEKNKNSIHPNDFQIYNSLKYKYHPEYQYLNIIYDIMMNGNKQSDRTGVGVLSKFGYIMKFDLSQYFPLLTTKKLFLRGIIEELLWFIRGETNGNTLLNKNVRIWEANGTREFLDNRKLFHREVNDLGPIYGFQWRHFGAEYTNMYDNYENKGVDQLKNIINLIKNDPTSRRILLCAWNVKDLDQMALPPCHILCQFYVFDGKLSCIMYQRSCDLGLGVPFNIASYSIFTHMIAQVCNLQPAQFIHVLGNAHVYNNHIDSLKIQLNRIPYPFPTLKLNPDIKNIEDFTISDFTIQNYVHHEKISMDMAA

Sequence of Epidermal growth factor receptor (P00533 whole entry, the tested form may be a part): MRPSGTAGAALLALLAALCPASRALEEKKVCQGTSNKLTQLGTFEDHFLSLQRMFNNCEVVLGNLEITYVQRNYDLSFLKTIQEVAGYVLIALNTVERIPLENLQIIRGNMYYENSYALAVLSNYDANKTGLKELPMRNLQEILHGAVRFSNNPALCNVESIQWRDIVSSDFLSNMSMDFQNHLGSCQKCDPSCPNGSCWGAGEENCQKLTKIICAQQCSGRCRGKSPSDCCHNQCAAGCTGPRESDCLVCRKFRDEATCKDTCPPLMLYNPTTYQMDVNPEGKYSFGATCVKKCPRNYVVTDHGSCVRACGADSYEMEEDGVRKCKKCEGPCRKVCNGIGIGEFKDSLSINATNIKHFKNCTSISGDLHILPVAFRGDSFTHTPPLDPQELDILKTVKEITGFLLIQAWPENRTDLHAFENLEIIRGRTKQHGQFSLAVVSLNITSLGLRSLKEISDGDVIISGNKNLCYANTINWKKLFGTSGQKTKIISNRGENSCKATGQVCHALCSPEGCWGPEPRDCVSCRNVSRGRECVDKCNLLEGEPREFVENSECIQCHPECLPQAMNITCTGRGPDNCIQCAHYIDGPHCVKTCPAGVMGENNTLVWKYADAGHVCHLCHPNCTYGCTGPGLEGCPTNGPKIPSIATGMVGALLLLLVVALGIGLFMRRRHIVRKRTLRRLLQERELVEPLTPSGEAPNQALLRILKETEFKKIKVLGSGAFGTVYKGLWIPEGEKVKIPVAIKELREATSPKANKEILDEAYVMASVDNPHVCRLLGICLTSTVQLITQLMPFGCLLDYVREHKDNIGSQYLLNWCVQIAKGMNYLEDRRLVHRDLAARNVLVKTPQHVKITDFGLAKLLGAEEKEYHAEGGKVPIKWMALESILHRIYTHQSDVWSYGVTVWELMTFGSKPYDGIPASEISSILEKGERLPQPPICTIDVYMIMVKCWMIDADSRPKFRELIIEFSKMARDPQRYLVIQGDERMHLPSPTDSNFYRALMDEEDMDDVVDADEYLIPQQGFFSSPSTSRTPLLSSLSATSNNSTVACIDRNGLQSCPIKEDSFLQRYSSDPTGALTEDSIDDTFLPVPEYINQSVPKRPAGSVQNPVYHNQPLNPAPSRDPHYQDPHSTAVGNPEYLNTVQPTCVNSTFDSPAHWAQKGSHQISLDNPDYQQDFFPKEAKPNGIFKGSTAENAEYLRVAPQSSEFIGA

For orientation: IC50 means the concentration that gives 50% inhibition. Regarding `Cn1cc(-c2onc(C(=O)O)c2CO)c2ccccc21`, in test [1], inhibition was half-maximal at 0.91 µM (IC50). As a reminder, the Kd is the equilibrium constant for the complex coming apart. Turning to `O=C1Nc2cc(C(F)(F)F)ccc2C1(O)c1cc(Cl)ccc1O` (configuration not stated), in test [2], the Kd is 520 µM. Regarding `O=C(Nc1ccc(C(=O)N[C@H]2c3cccc(O)c3C[C@H]2C(=O)O)cc1)NC1CC1`, the IC50 in test [3] was 390 µM; in test [4] it was more than 180 µM. For `C=CC(=O)Nc1cc(-c2cn(C)c3ccccc23)ncn1`, the IC50 in test [5] came out at 0.9 µM. In test [1], `Cc1cc(C)on1` came in with an IC50 of 84 µM.

With `Cn1c(=O)c2[nH]cnc2n(C)c1=O` [THEOPHYLLINE ANHYDROUS], the IC50 in test [6] was 320 µM. Turning to `C=CC(=O)Nc1ccccn1`, the IC50 in test [5] is more than 500 µM.

For `Cc1ccc2c(c1)NC(=O)[C@@]2(c1cn[nH]c1)c1cc(-c2ccc(C(=O)O)cc2C(=O)O)ccc1O`, the Kd in test [2] came to 1.1 µM. Broadly, the Ki is a measure of affinity in units of concentration, obtained from inhibition or displacement. As for `O=C(O)c1cccc(-c2ccncc2)c1`, the Ki in test [7] is more than 500 µM. Molecule `O=C(O)c1cc(-c2c[nH]c3ccccc23)on1` came in with an IC50 in test [1] of 97 µM. On the same count and under the same terms, then `CCNC(=O)[C@H](C)NC(=O)Cn1cc(-c2c(C)noc2C)cn1`, with 0.05 µM.
